Data from patent US10442807B2, “Aryl substituted bicyclic compounds as herbicides” (FMC Corporation, priority 2015, dated 2019).

Experiments:
Format in all cases: in vivo
kochia (Kochia scoparia) [1] = assay: Test A preemergence, directed soil spray, visual injury rating; details: approx. 10 d, 0 = no effect, 100 = complete control
Source text: (§1) Seeds of plant species selected from barnyardgrass (Echinochloa crus-galli), kochia (Kochia scoparia), ragweed (common ragweed, Ambrosia elation), ryegrass, Italian (Italian ryegrass, Lolium multiflorum), foxtail, giant (giant foxtail, Setaria faberii), and pigweed (Amaranthus retroflexus), were planted into a blend of loam soil and sand and treated preemergence with a directed soil spray using test chemicals formulated in a non-phytotoxic solvent mixture which included a surfactant. At the same time, plants selected from these weed species and also blackgrass (Alopecurus myosuroides), galium (catchweed bedstraw, Galium aparine), wheat (Triticum aestivum), and corn (Zea mays) were planted in pots containing the same blend of loam soil and sand and treated with postemergence applications of test chemicals formulated in the same manner. Plants ranged in height from 2 to 10 cm and were in the one- to two-leaf stage for the postemergence treatment. Treated plants and untreated controls were maintained in a greenhouse for approximately 10 d, after which time all treated plants were compared to untreated controls and visually evaluated for injury. Plant response ratings, summarized in Table A, are based on a 0 to 100 scale where 0 is no effect and 100 is complete control. A dash (-) response means no test result.

[2] = test system: foxtail, giant (giant foxtail, Setaria faberii); assay: as above; details: approx. 10 d, 0 = no effect, 100 = complete control
Source text: as §1

[3] = test system: pigweed (Amaranthus retroflexus); assay: as above; details: approx. 10 d, 0 = no effect, 100 = complete control
Source text: as §1

[4] = test system: ragweed (common ragweed, Ambrosia elation); assay: as above; details: approx. 10 d, 0 = no effect, 100 = complete control
Source text: as §1

[5] = test system: ryegrass, Italian (Italian ryegrass, Lolium multiflorum); assay: as above; details: approx. 10 d, 0 = no effect, 100 = complete control
Source text: as §1

[6] = test system: barnyardgrass (Echinochloa crus-galli); assay: as above; details: approx. 10 d, 0 = no effect, 100 = complete control
Source text: as §1

[7] = test system: sedge, umbrella (small-flower umbrella sedge, Cyperus difformis); assay: Test B flooded paddy test, visual plant response rating; details: 250 g ai/ha; applied to paddy water at 2-leaf stage; rated after 13 to 15 days; scale 0 to 100, 0 is no effect, 100 is complete control
Source text: (§2) At time of treatment, test pots were flooded to 3 cm above the soil surface, treated by application of test compounds directly to the paddy water, and then maintained at that water depth for the duration of the test. Treated plants and controls were maintained in a greenhouse for 13 to 15 days, after which time all species were compared to controls and visually evaluated. Plant response ratings, summarized in Table B, are based on a scale of 0 to 100 where 0 is no effect and 100 is complete control. A dash (-) response means no test result.

rice (Oryza sativa) = assay: as above; details: 250 g ai/ha; applied to paddy water at 2-leaf stage; rated after 13 to 15 days; scale 0 to 100, 0 is no effect, 100 is complete control
Source text: as §2

[8] = test system: ducksalad (Heteranthera limosa); assay: as above; details: 250 g ai/ha; applied to paddy water at 2-leaf stage; rated after 13 to 15 days; scale 0 to 100, 0 is no effect, 100 is complete control
Source text: as §2

[9] = test system: barnyardgrass (Echinochloa crus-galli); assay: as above; details: 250 g ai/ha; applied to paddy water at 2-leaf stage; rated after 13 to 15 days; scale 0 to 100, 0 is no effect, 100 is complete control
Source text: as §2

kochia (Kochia scoparia) [10] = assay: Test A postemergence application, visual injury rating; details: approx. 10 d, 0 = no effect, 100 = complete control
Source text: as §1

[11] = test system: galium (catchweed bedstraw, Galium aparine); assay: as above; details: approx. 10 d, 0 = no effect, 100 = complete control
Source text: as §1

[12] = test system: foxtail, giant (giant foxtail, Setaria faberii); assay: as above; details: approx. 10 d, 0 = no effect, 100 = complete control
Source text: as §1

corn (Zea mays) = assay: as above; details: approx. 10 d, 0 = no effect, 100 = complete control
Source text: as §1

[13] = test system: pigweed (Amaranthus retroflexus); assay: as above; details: approx. 10 d, 0 = no effect, 100 = complete control
Source text: as §1

[14] = test system: blackgrass (Alopecurus myosuroides); assay: as above; details: approx. 10 d, 0 = no effect, 100 = complete control
Source text: as §1

[15] = test system: wheat (Triticum aestivum); assay: as above; details: approx. 10 d, 0 = no effect, 100 = complete control
Source text: as §1

[16] = test system: ragweed (common ragweed, Ambrosia elation); assay: as above; details: approx. 10 d, 0 = no effect, 100 = complete control
Source text: as §1

[17] = test system: ryegrass, Italian (Italian ryegrass, Lolium multiflorum); assay: as above; details: approx. 10 d, 0 = no effect, 100 = complete control
Source text: as §1

[18] = test system: barnyardgrass (Echinochloa crus-galli); assay: as above; details: approx. 10 d, 0 = no effect, 100 = complete control
Source text: as §1

Structure (SMILES)	Kochia plant response rating (0 to 100 scale) (kochia (Kochia scoparia) [1]; 125 g ai/ha)	Kochia plant response rating (0 to 100 scale) (kochia (Kochia scoparia) [1]; 500 g ai/ha)	Foxtail, Giant plant response rating (0 to 100 scale) ([2]; 125 g ai/ha)	Foxtail, Giant plant response rating (0 to 100 scale) ([2]; 500 g ai/ha)	Pigweed plant response rating (0 to 100 scale) ([3]; 125 g ai/ha)	Pigweed plant response rating (0 to 100 scale) ([3]; 500 g ai/ha)	Ragweed plant response rating (0 to 100 scale) ([4]; 125 g ai/ha)	Ragweed plant response rating (0 to 100 scale) ([4]; 500 g ai/ha)	Ryegrass, Italian plant response rating (0 to 100 scale) ([5]; 125 g ai/ha)	Ryegrass, Italian plant response rating (0 to 100 scale) ([5]; 500 g ai/ha)	Barnyardgrass plant response rating (0 to 100 scale) ([6]; 125 g ai/ha)	Barnyardgrass plant response rating (0 to 100 scale) ([6]; 500 g ai/ha)	Plant response rating, Flood, Sedge, Umbrella [7]	Plant response rating, Flood, Rice (rice (Oryza sativa))	Plant response rating, Flood, Ducksalad [8]	Plant response rating, Flood, Barnyardgrass [9]	Kochia plant response rating (0 to 100 scale) (kochia (Kochia scoparia) [10]; 125 g ai/ha)	Kochia plant response rating (0 to 100 scale) (kochia (Kochia scoparia) [10]; 500 g ai/ha)	Galium plant response rating (0 to 100 scale) ([11]; 125 g ai/ha)	Galium plant response rating (0 to 100 scale) ([11]; 500 g ai/ha)	other results
CCc1ccc(C2Cn3c(C)nnc3C2C(=O)Nc2cccc(F)c2C)cc1 (stereo not drawn) [Compound 9]	0	0	60	90	0	0	0	0	0	0	40	70	0	15	75	20	0	0	0	20	Foxtail, Giant plant response rating (0 to 100 scale) ([12]; 125 g ai/ha): 0; Foxtail, Giant plant response rating (0 to 100 scale) ([12]; 500 g ai/ha): 50; Corn plant response rating (0 to 100 scale) (corn (Zea mays); 125 g ai/ha): 0; Corn plant response rating (0 to 100 scale) (corn (Zea mays); 500 g ai/ha): 0; Pigweed plant response rating (0 to 100 scale) ([13]; 125 g ai/ha): 0; Pigweed plant response rating (0 to 100 scale) ([13]; 500 g ai/ha): 0; Blackgrass plant response rating (0 to 100 scale) ([14]; 125 g ai/ha): 20; Blackgrass plant response rating (0 to 100 scale) ([14]; 500 g ai/ha): 70; Wheat plant response rating (0 to 100 scale) ([15]; 125 g ai/ha): 0; Wheat plant response rating (0 to 100 scale) ([15]; 500 g ai/ha): 0; Ragweed plant response rating (0 to 100 scale) ([16]; 125 g ai/ha): 0; Ragweed plant response rating (0 to 100 scale) ([16]; 500 g ai/ha): 0; Ryegrass, Italian plant response rating (0 to 100 scale) ([17]; 125 g ai/ha): 0; Ryegrass, Italian plant response rating (0 to 100 scale) ([17]; 500 g ai/ha): 20; Barnyardgrass plant response rating (0 to 100 scale) ([18]; 125 g ai/ha): 30; Barnyardgrass plant response rating (0 to 100 scale) ([18]; 500 g ai/ha): 70
Cc1nnc2n1CC(c1ccc(Cl)cc1)C2C(=O)Nc1cccc(F)c1F (stereo not drawn) [Compound 5]	0	50	50	90	0	0	0	40	20	30	30	80	0	0	20	40	0	30	40	70	Foxtail, Giant plant response rating (0 to 100 scale) ([12]; 125 g ai/ha): 30; Foxtail, Giant plant response rating (0 to 100 scale) ([12]; 500 g ai/ha): 80; Corn plant response rating (0 to 100 scale) (corn (Zea mays); 125 g ai/ha): 20; Corn plant response rating (0 to 100 scale) (corn (Zea mays); 500 g ai/ha): 30; Pigweed plant response rating (0 to 100 scale) ([13]; 125 g ai/ha): 0; Pigweed plant response rating (0 to 100 scale) ([13]; 500 g ai/ha): 20; Blackgrass plant response rating (0 to 100 scale) ([14]; 125 g ai/ha): 0; Blackgrass plant response rating (0 to 100 scale) ([14]; 500 g ai/ha): 20; Wheat plant response rating (0 to 100 scale) ([15]; 125 g ai/ha): 0; Wheat plant response rating (0 to 100 scale) ([15]; 500 g ai/ha): 20; Ragweed plant response rating (0 to 100 scale) ([16]; 125 g ai/ha): 0; Ragweed plant response rating (0 to 100 scale) ([16]; 500 g ai/ha): 20; Ryegrass, Italian plant response rating (0 to 100 scale) ([17]; 125 g ai/ha): 0; Ryegrass, Italian plant response rating (0 to 100 scale) ([17]; 500 g ai/ha): 20; Barnyardgrass plant response rating (0 to 100 scale) ([18]; 125 g ai/ha): 20; Barnyardgrass plant response rating (0 to 100 scale) ([18]; 500 g ai/ha): 80
Cc1ccc(C2Cn3c(C)nnc3C2C(=O)Nc2cccc(F)c2F)cc1C (stereo not drawn) [Compound 19]	0	30	70	90	0	0	0	0	0	20	50	90	0	0	20	30	0	20	0	50	Foxtail, Giant plant response rating (0 to 100 scale) ([12]; 125 g ai/ha): 30; Foxtail, Giant plant response rating (0 to 100 scale) ([12]; 500 g ai/ha): 80; Corn plant response rating (0 to 100 scale) (corn (Zea mays); 125 g ai/ha): 0; Corn plant response rating (0 to 100 scale) (corn (Zea mays); 500 g ai/ha): 30; Pigweed plant response rating (0 to 100 scale) ([13]; 125 g ai/ha): 0; Pigweed plant response rating (0 to 100 scale) ([13]; 500 g ai/ha): 0; Blackgrass plant response rating (0 to 100 scale) ([14]; 125 g ai/ha): 0; Blackgrass plant response rating (0 to 100 scale) ([14]; 500 g ai/ha): 70; Wheat plant response rating (0 to 100 scale) ([15]; 125 g ai/ha): 0; Wheat plant response rating (0 to 100 scale) ([15]; 500 g ai/ha): 30; Ragweed plant response rating (0 to 100 scale) ([16]; 125 g ai/ha): 0; Ragweed plant response rating (0 to 100 scale) ([16]; 500 g ai/ha): 20; Ryegrass, Italian plant response rating (0 to 100 scale) ([17]; 125 g ai/ha): 0; Ryegrass, Italian plant response rating (0 to 100 scale) ([17]; 500 g ai/ha): 20; Barnyardgrass plant response rating (0 to 100 scale) ([18]; 125 g ai/ha): 60; Barnyardgrass plant response rating (0 to 100 scale) ([18]; 500 g ai/ha): 90
Cc1ccc(C2Cn3cnnc3C2C(=O)Nc2cccc(F)c2F)cc1C (stereo not drawn) [Compound 16]	70	80	90	90	0	0	0	50	0	60	70	90	0	15	75	50	30	30	40	50	Foxtail, Giant plant response rating (0 to 100 scale) ([12]; 125 g ai/ha): 60; Foxtail, Giant plant response rating (0 to 100 scale) ([12]; 500 g ai/ha): 80; Corn plant response rating (0 to 100 scale) (corn (Zea mays); 125 g ai/ha): 0; Corn plant response rating (0 to 100 scale) (corn (Zea mays); 500 g ai/ha): 70; Pigweed plant response rating (0 to 100 scale) ([13]; 125 g ai/ha): 0; Pigweed plant response rating (0 to 100 scale) ([13]; 500 g ai/ha): 0; Blackgrass plant response rating (0 to 100 scale) ([14]; 125 g ai/ha): 0; Blackgrass plant response rating (0 to 100 scale) ([14]; 500 g ai/ha): 60; Wheat plant response rating (0 to 100 scale) ([15]; 125 g ai/ha): 0; Wheat plant response rating (0 to 100 scale) ([15]; 500 g ai/ha): 50; Ragweed plant response rating (0 to 100 scale) ([16]; 125 g ai/ha): 0; Ragweed plant response rating (0 to 100 scale) ([16]; 500 g ai/ha): 50; Ryegrass, Italian plant response rating (0 to 100 scale) ([17]; 125 g ai/ha): 0; Ryegrass, Italian plant response rating (0 to 100 scale) ([17]; 500 g ai/ha): 50; Barnyardgrass plant response rating (0 to 100 scale) ([18]; 125 g ai/ha): 60; Barnyardgrass plant response rating (0 to 100 scale) ([18]; 500 g ai/ha): 80
